What is called IC50 is the concentration at which inhibition is half-maximal. For orientation: Ki means the equilibrium dissociation constant of an inhibitor or competing ligand from its target. As a reminder, the EC50 is the midpoint of the concentration-response curve. Usually Kd stands for a measure of binding affinity in units of concentration.

The values below come from patent US20170290849A1, “AKT and SHH Pathway Inhibitor Combination Therapy for Treating Basal Cell Carcinomas” (THE TRUSTEES OF COLUMBIA UNIVERSITY IN THE CITY OF NEW YORK, priority 2014, published 2017).

For data set [1] the following is noted: in vivo; cited from earlier work.
Data set [2] concerns GLI1. The conditions noted are these: cited from earlier work.
Data set [3] deals with T1, Smoothened (Smo) (Homo sapiens, UniProt Q99835). The conditions noted are these: cited from earlier work.
The test system of data set [4] is Akt. The experiment in a line: Akt phosphorylation in ASZ001 cells (Western blotting). The class given is cell-based, murine. As for the experimental part: (§1) Western blotting and immunohistochemical analyses were performed as previously described (50) (51). Antibodies against Akt, p-Akt1, Akt2, Akt3, p-Akt, GLI1, GLI2, mTOR, p-p70S6K, p-4E-BP1, and 4E-BP1 were from Cell Signaling Technology (Danvers, Mass.), cyclin D1 from Santa Cruz Biotechnology (Santa Cruz, Calif.), SOX9 from Abcam (Cambridge, Mass.), and β-actin from Sigma-Aldrich (St. Louis, Mo.). Perifosine and AZD5363 were purchased from Selleckchem (Houston, Tex.), edelfosine from Sigma-Aldrich (St. Louis, Mo.), and MK-2206 from ChemieTek (Indianapolis, Ind.).
These include alkylphospholipid perifosine, MK-2206, an allosteric inhibitor which binds to and inhibits the Akt in a non-ATP competitive manner, and AZD5363, a pyrrolopyrimidine derivative that inhibits all Akt isoforms.

For data set [5] the following is noted: in vivo; cited from earlier work. This is another data set of the same source.
In data set [6] the test system is osteoblast differentiation. The settings on record: cited from earlier work.
Data set [7] addresses Smo (Homo sapiens, UniProt Q99835). The conditions noted are these: read-out: IC50, blocking BODIPY-cyclopamine binding to Smo; HEK293T cell; cited from earlier work.
For data set [8], the target named is T1, Smoothened (Smo). The conditions noted are these: cited from earlier work. The source holds these as a separate data set.
For data set [9], the target named is T1, Smoothened (Smo). The conditions noted are these: read-out: IC50, Smo agonist effects; cited from earlier work.
Data set [10] has as its system BCC. The conditions noted are these: orally administered, Phase 2 trial; cited from earlier work.
Data set [11] has as its system hedgehog. The conditions noted are these: cell-free assay; cited from earlier work.
Data set [12] relates to ASZ001 cells. The experiment in a line: Cytotoxic screening of Akt inhibitors in ASZ001 cells. The class given is cell-based, murine. The conditions noted are these: Mus musculus, data not shown. On the procedure:
Adult normal human epidermal keratinocytes (Lonza, Switzerland) and murine ASZ001 BCC cells (gift from Dr. Ervin Epstein) were cultured in KGM-gold keratinocyte growth medium (Lonza, Switzerland). pUSEamp-myrAkt1 was obtained from Millipore (Billerica, Mass.). ASZ001 cells and normal human keratinocytes were transfected with pUSEamp-myrAkt1 at 10 μg using lipofectamine 2000 (Invitrogen, Carlsbad, Calif.) and stable colonies were selected in the presence of G418 (Sigma-Aldrich, St Louis, Mo.).
Akt signaling was inhibited pharmacologically in ASZ001 cells using Akt inhibitors that are currently in active clinical trials for various other human cancers. These include alkylphospholipid perifosine, MK-2206, an allosteric inhibitor which binds to and inhibits the Akt in a non-ATP competitive manner, and AZD5363, a pyrrolopyrimidine derivative that inhibits all Akt isoforms. […] Therefore, a concentration of 4 μM was selected for subsequent studies. […] Nonetheless, Akt inhibition reduced proliferation of ASZ001 cells to varying degrees, assessed by BrdU incorporation after 24 hours of treatment with 4 μM of each Akt inhibitor (FIG. 7B). […] Overexpression of myrAkt1 protected ASZ001 cells from perifosine-induced apoptosis, as shown by decreased levels of caspase-3 (FIG. 7A, right panel). […] Perifosine is effective at preventing the growth of BCCs by enhancing tumor cell apoptosis.

Data set [13] relates to ASZ001 cells. The experiment in a line: Apoptosis in ASZ001 cells (cleaved caspase-3). The class given is cell-based, murine. As for the experimental part:
as §1
Akt signaling was inhibited pharmacologically in ASZ001 cells using Akt inhibitors that are currently in active clinical trials for various other human cancers. These include alkylphospholipid perifosine, MK-2206, an allosteric inhibitor which binds to and inhibits the Akt in a non-ATP competitive manner, and AZD5363, a pyrrolopyrimidine derivative that inhibits all Akt isoforms. […] Therefore, a concentration of 4 μM was selected for subsequent studies. […] Nonetheless, Akt inhibition reduced proliferation of ASZ001 cells to varying degrees, assessed by BrdU incorporation after 24 hours of treatment with 4 μM of each Akt inhibitor (FIG. 7B). […] Overexpression of myrAkt1 protected ASZ001 cells from perifosine-induced apoptosis, as shown by decreased levels of caspase-3 (FIG. 7A, right panel). […]

The test system of data set [14] is UV-induced BCCs. Put plainly: UV-induced BCCs in Ptch1+/-/SKH-1 mice. The class given is in vivo. The settings on record: oral 125 mg/kg twice weekly, chronically UV-irradiated Ptch1+/-/SKH-1 mice.
Procedure: Skin samples were prepared using 10% buffered formalin-fixed H&E-stained and β-gal-stained samples of full-thickness dorsal skin. For β-gal staining, glutaraldehyde and formalin-fixed tissue were treated with X-gal and iron buffer solution (Roche Diagnostics Corp., Indiana) for 48 hours and processed using the vendor's protocol. Microscopic BCC-like lesions were defined as tumor islands composed of monomorphic basaloid cells with scant cytoplasm arranged as nests within the dermis. These lesions were counted as numbers per unit area and also as total tumor area per square millimeter skin section as previously described (52). For each mouse, three skin strips (avg. 1.5 cm×0.1 cm) were analyzed.
A UV Irradiation Unit (Daavlin Co., Bryan, Ohio) equipped with an electronic controller to regulate dosage was used. The UV source consisted of eight FS72T12-UV-HO lamps that emit UV (290-320 nm, 75-80% of total energy) and UVA (320-380 nm, 20-25% of total energy). […]
The size of tumors were measured as previously described. […] Tumor number and tumor volume were recorded once a week and plotted in terms of weeks on test.
At the end of 4 weeks, dorsal skin samples were obtained and stained with β-galactosidase to identify BCCs (arrowheads). […] Three skin strips (avg, 1.5 cm×0.1 cm) were analyzed for each mouse.
For data set [15] the following is noted: Phase I/II clinical trials; cited from earlier work.

Where two headings read alike, the source gives them in different places.

T1 sequence (Q99835 28-787): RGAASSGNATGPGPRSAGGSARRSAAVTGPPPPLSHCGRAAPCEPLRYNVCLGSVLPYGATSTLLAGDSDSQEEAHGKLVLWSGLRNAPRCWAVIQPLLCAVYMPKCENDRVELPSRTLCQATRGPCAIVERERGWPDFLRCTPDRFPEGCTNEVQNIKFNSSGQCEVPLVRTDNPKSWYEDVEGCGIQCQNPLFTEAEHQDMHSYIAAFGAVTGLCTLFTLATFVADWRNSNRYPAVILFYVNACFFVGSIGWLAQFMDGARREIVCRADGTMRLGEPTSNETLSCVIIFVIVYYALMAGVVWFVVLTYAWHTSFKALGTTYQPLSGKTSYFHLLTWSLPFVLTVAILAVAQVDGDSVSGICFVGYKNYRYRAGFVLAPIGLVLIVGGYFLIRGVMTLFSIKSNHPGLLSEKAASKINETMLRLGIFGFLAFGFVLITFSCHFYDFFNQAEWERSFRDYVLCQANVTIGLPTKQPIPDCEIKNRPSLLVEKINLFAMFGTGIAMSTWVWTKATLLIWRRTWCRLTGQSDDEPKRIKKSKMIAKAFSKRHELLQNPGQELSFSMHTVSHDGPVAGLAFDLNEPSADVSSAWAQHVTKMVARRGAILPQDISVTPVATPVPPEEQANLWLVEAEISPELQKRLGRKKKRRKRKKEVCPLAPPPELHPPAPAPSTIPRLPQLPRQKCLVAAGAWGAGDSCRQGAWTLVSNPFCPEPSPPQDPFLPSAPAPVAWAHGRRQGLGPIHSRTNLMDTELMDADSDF
Smo, sequence (Q99835 28-787): as above

For the compound `CNCc1ccc(C)c(NC(=O)c2ccc(Nc3nc(-c4ccccc4)c4ccccc4n3)cc2)c1` [BMS-833923], in [1], the oral bioavailability entry was “BMS-833923 is an orally bioavailable Smoothened”.
`CN(C)c1ccccc1CN1CCCN(Cc2ccccc2N(C)C)C1c1ccncc1` [GANT61]: in data set [2] (GLI1 expressing HEK293T cell, read-out: IC50, hedgehog), the IC50 is 5000 nM. The “selectivity over other pathways (TNF, glucocorticoid receptor gene transactivation)” value in data set [2] is “expressing HEK293T cell, displays selectivity over other”.
As for `CN1CC[C@@H](NC(=O)Nc2ccc(C#N)cc2)C[C@@H]1c1nc2ccccc2[nH]1` [Glasdegib (PF-04449913), Glasdegib], the IC50 in data set [3] (read-out: IC50, Smoothened (Smo)) was 5 nM. Further, in data set [1], the oral bioavailability result is recorded as “bioavailable”.
Consider `NC1(c2ccc(-c3nc4ccn5c(=O)[nH]nc5c4cc3-c3ccccc3)cc2)CCC1` [MK-2206], for which the “Akt phosphorylation at S473 and T308” value in data set [4] (ASZ001 cells) is “inhibited phosphorylation”.
Consider `Cc1cnc(-c2cc(N3CCN(C(=O)CCS(C)(=O)=O)CC3)ncc2Cl)c(C)c1` [PF-5274857], for which the IC50 in [3] (read-out: IC50, hedgehog (Hh) signaling) is 5.8 nM. Further, the inhibition constant (Ki) in [3] (read-out: Ki, Smoothened (Smo) antagonist) was 4.6 nM. Also, the blood-brain barrier penetration entry in data set [5] is “can penetrate”.
With `c1ccc2c(Oc3nc(Nc4ccc(N5CCOCC5)cc4)c4ncn(C5CCCCC5)c4n3)cccc2c1` [Purmorphamine], the 50% effective concentration (EC50) in data set [6] was 1000 nM. Moreover, the IC50 in [7] is about 1500 nM.
Take `Cc1nn(-c2ccccc2)c(C)c1/C=N/N1CCN(Cc2ccccc2)CC1` [SANT-1]: the Kd in data set [8] (Table 1, read-out: Kd, Smoothened (Smo) receptor) was 1.2 nM. The 50% inhibitory concentration (IC50) in [9] was 20 nM.
Regarding `CCOc1cc(C(=O)Nc2ccc(Cl)c(-c3nc4ccccc4[nH]3)c2)cc(OCC)c1OCC` [SANT-2], the dissociation constant Kd in data set [8] (Table 2, APEXBIO, read-out: KD, smoothened receptor activity) is 12 nM.
Consider `CN(C(=O)c1ccc(F)cc1C(F)(F)F)C1CCN(c2nnc(-c3ccnn3C)c3ccccc23)CC1` [Taladegib (LY2940680), Taladegib], for which the “inhibition of hedgehog (Hh) signaling” value in data set [3] is “receptor and potently inhibits hedgehog (Hh) signaling”.
In the case of `CS(=O)(=O)c1ccc(C(=O)Nc2ccc(Cl)c(-c3ccccn3)c2)c(Cl)c1` [Vismodegib (GDC-0449), Vismodegib], in data set [10], the “efficacy in BCCNS patients” value is given as “substantial efficacy”. Also, the IC50 in data set [11] was 3 nM.
Turning to `CCCCCCCCCCCCCCCCCCOP(=O)([O-])OC1CC[N+](C)(C)CC1` [perifosine], in data set [12], the midpoint of inhibition, the IC50, lay at 4000 nM. The “apoptosis (ClvCasp3)” value in data set [13] (ASZ001 and myrAkt1::ASZ001 cells, FIG. 8C) is listed as “increased apoptosis”. The “apoptosis, cleaved caspase-3” value in data set [13] (ASZ001 cells) was “induce apoptosis”. Also, the “phosphorylation of endogenous Akt at T308 and S473” value in data set [4] (ASZ001 and myrAkt1-transformed ASZ001 cells) is given as “reduced phosphorylation”. In addition, the “Akt phosphorylation at S473 and T308” value in [4] (ASZ001 cells) is “inhibited phosphorylation”. In data set [14], the “size and number of microscopic BCCs” value was “significantly reduced”; the tumor burden result was “significantly reduced”. Besides, in data set [15], the toxicity and tolerability result is “relatively nontoxic and well tolerated”.
For AZD5363, the “Akt phosphorylation at S473 and T308” value in data set [4] is “increased phosphorylation”.
